In the supplement of paper PMC11061612:

Columns and labels:
Assay in all cases: Bliss excess, mean over the matrix (fraction); higher = more synergy
[1] = test system: KYSE-70 (Esophageal Squamous Cell Carcinoma)
Method in brief: (§1)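 Cell lines grown in DMEM/F12 or RPMI with 10% FBS were plated in 1536-well plates and held 24 hours at 37°C, 5% CO2 before 72 hours of exposure to two-drug dose matrices, with DMSO typically at 0.2%. CellTiter-Glo 2.0 luminescence gave viability, which was converted to inhibition. Vehicle wells were set to 0 and blank wells to 1. Combination Emax is the second-highest inhibition in the matrix, and Bliss excess is the observed combination effect minus the expected EA + EB − EA·EB, where EA and EB are the single-agent effects.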

[2] = test system: NCI-H1755 (Lung Adenocarcinoma)
Method in brief: as §1

[3] = test system: RERF-LC-KJ (Lung Adenocarcinoma)
Method in brief: as §1

CHL-1 (Melanoma) = test system: CHL-1 (Melanoma)
Method in brief: as §1

## CN(CCO)CC[C@H](CSc1ccccc1)Nc1ccc(S(=O)(=O)NC(=O)c2ccc(N3CCC([C@@H](O)c4ccccc4-c4ccc(Cl)cc4)CC3)cc2)cc1S(=O)(=O)C(F)(F)F [AZD4320] + C1CN(CCC1(C(=O)N[C@@H](CCO)C2=CC=C(C=C2)Cl)N)C3=NC=NC4=C3C=CN4 [Capivasertib] (first compound max 1 µM, 7x7, partner max 3 µM)
[1]
  Bliss excess: -0.0273
[2]
  Bliss excess: -0.0221
[3]
  Bliss excess: -0.0282
CHL-1 (Melanoma)
  Bliss excess: -0.028

## COc1cccc(OCCCN)c1-c1cc(Nc2cnc(C#N)cn2)n[nH]1 [Prexasertib] + Cc1cc2ncnn2cc1Nc1ncc2c(n1)n(C1CCOCC1)c(=O)n2C [AZD7648] (first compound max 1 µM, 7x7, partner max 10 µM)
[1]
  Bliss excess: -0.0383
[2]
  Bliss excess: -0.0249
[3]
  Bliss excess: 0.0558
CHL-1 (Melanoma)
  Bliss excess: -0.0122

## CC1(C)CCC(CN2CCN(c3ccc(C(=O)NS(=O)(=O)c4ccc(NCC5CCOCC5)c([N+](=O)[O-])c4)c(Oc4cnc5[nH]ccc5c4)c3)CC2)=C(c2ccc(Cl)cc2)C1 [Venetoclax] + COc1cc(Nc2ncc3c(n2)-c2ccc(Cl)cc2C(c2c(F)cccc2OC)=NC3)ccc1C(=O)O [Alisertib] (first compound max 1 µM, 7x7, partner max 10 µM)
[1]
  Bliss excess: -0.0084
[2]
  Bliss excess: -0.0281
[3]
  Bliss excess: -0.0527
CHL-1 (Melanoma)
  Bliss excess: 0.238

## C[C@@H](c1ccc2nccn2c1)n1nnc2ncc(-c3cnn(C)c3)nc21 [Savolitinib] + CN(CC[C@H](CSC1=CC=CC=C1)NC2=C(C=C(C=C2)S(=O)(=O)NC(=O)C3=CC=C(C=C3)N4CCC(CC4)[C@H](C5=CC=CC=C5C6=CC=C(C=C6)Cl)O)S(=O)(=O)C(F)(F)F)CCO [AZD4320] (first compound max 1 µM, 7x7, partner max 1 µM)
[3]
  Bliss excess: -0.0454

## CN(C)CCCOc1ccc(-c2ccc3ncc4c(c3c2)n(C2CCOCC2)c(=O)n4C)cn1 [AZD0156] + C=CCn1c(=O)c2cnc(Nc3ccc(N4CCN(C)CC4)cc3)nc2n1-c1cccc(C(C)(C)O)n1 [AZD1775] (first compound max 1 µM, partner max 1 µM)
[1]
  Bliss excess: -0.0531
[2]
  Bliss excess: -0.0462
[3]
  Bliss excess: -0.0193
CHL-1 (Melanoma)
  Bliss excess: -0.0427

## CCc1c2c(nc3ccc(O)cc13)-c1cc3c(c(=O)n1C2)COC(=O)[C@]3(O)CC [SN-38] + CN(C)CCCOc1ccc(-c2ccc3ncc4c(c3c2)n(C2CCOCC2)c(=O)n4C)cn1 [AZD0156] (first compound max 0.3 µM, 7x7, partner max 1 µM)
[1]
  Bliss excess: 0.0487
[2]
  Bliss excess: 0.0829
[3]
  Bliss excess: -0.083
CHL-1 (Melanoma)
  Bliss excess: 0.0336

## CC1(C)CCC(CN2CCN(c3ccc(C(=O)NS(=O)(=O)c4ccc(NCC5CCOCC5)c([N+](=O)[O-])c4)c(Oc4cnc5[nH]ccc5c4)c3)CC2)=C(c2ccc(Cl)cc2)C1 [Venetoclax] + C[C@@H](Nc1cc(F)cc(F)c1)c1cc(C(=O)N(C)C)cc2c(=O)cc(N3CCOCC3)oc12 [AZD8186] (first compound max 1 µM, 7x7, partner max 3 µM)
[1]
  Bliss excess: -0.0239
[2]
  Bliss excess: 0.0229
[3]
  Bliss excess: -0.0632
CHL-1 (Melanoma)
  Bliss excess: -0.0397

## CN(C)CCCOc1ccc(-c2ccc3ncc4c(c3c2)n(C2CCOCC2)c(=O)n4C)cn1 [AZD0156] + C[C@@H]1COCCN1C2=NC(=NC(=C2)C3(CC3)[S@](=N)(=O)C)C4=C5C=CNC5=NC=C4 [AZD6738] (first compound max 1 µM, 7x7, partner max 10 µM)
[1]
  Bliss excess: 0.0033
[2]
  Bliss excess: -0.0249
[3]
  Bliss excess: 0.0452
CHL-1 (Melanoma)
  Bliss excess: 0.0023

## Cc1c2c(nn1C)CSCc1cc(n(C)n1)CSc1cc(c3ccccc3c1)OCCCc1c(C(=O)O)n(C)c3c-2c(Cl)ccc13 [AZD5991] + Cc1cc2ncnn2cc1Nc1ncc2c(n1)n(C1CCOCC1)c(=O)n2C [AZD7648] (first compound max 1 µM, 7x7, partner max 10 µM)
[1]
  Bliss excess: 0.0024
[2]
  Bliss excess: 0.0189
[3]
  Bliss excess: 0.0171
CHL-1 (Melanoma)
  Bliss excess: 0.0317

## Cc1cc2ncnn2cc1Nc1ncc2c(n1)n(C1CCOCC1)c(=O)n2C [AZD7648] + CN(C)CCCOc1ccc(-c2ccc3ncc4c(c3c2)n(C2CCOCC2)c(=O)n4C)cn1 [AZD0156] (first compound max 10 µM, 7x7, partner max 1 µM)
[1]
  Bliss excess: 0.0213
[2]
  Bliss excess: 0.0118
[3]
  Bliss excess: 0.0285
CHL-1 (Melanoma)
  Bliss excess: 0.0169

## CC1(C)CCC(CN2CCN(c3ccc(C(=O)NS(=O)(=O)c4ccc(NCC5CCOCC5)c([N+](=O)[O-])c4)c(Oc4cnc5[nH]ccc5c4)c3)CC2)=C(c2ccc(Cl)cc2)C1 [Venetoclax] + C=CCn1c(=O)c2cnc(Nc3ccc(N4CCN(C)CC4)cc3)nc2n1-c1cccc(C(C)(C)O)n1 [AZD1775] (first compound max 1 µM, partner max 1 µM)
[1]
  Bliss excess: -0.0169
[2]
  Bliss excess: 0.054
[3]
  Bliss excess: -0.0394
CHL-1 (Melanoma)
  Bliss excess: 0.0577

## Cc1cc2ncnn2cc1Nc1ncc2c(n1)n(C1CCOCC1)c(=O)n2C [AZD7648] + CCN(CCO)CCCOc1ccc2c(Nc3cc(CC(=O)Nc4cccc(F)c4)[nH]n3)ncnc2c1 [AZD2811] (first compound max 10 µM, 7x7, partner max 1 µM)
[1]
  Bliss excess: 0.0476
[2]
  Bliss excess: 0.0038
[3]
  Bliss excess: 0.0428
CHL-1 (Melanoma)
  Bliss excess: 0.0203

## Cc1c2c(nn1C)CSCc1cc(n(C)n1)CSc1cc(c3ccccc3c1)OCCCc1c(C(=O)O)n(C)c3c-2c(Cl)ccc13 [AZD5991] + C=CCn1c(=O)c2cnc(Nc3ccc(N4CCN(C)CC4)cc3)nc2n1-c1cccc(C(C)(C)O)n1 [AZD1775] (first compound max 1 µM, partner max 1 µM)
[1]
  Bliss excess: 0.015
[2]
  Bliss excess: 0.0006
[3]
  Bliss excess: 0.0255
CHL-1 (Melanoma)
  Bliss excess: -0.0218

## CCN(CCO)CCCOc1ccc2c(Nc3cc(CC(=O)Nc4cccc(F)c4)[nH]n3)ncnc2c1 [AZD2811] + C=CCn1c(=O)c2cnc(Nc3ccc(N4CCN(C)CC4)cc3)nc2n1-c1cccc(C(C)(C)O)n1 [AZD1775] (first compound max 1 µM, partner max 1 µM)
[1]
  Bliss excess: -0.0449
[2]
  Bliss excess: -0.0428
[3]
  Bliss excess: 0.0515
CHL-1 (Melanoma)
  Bliss excess: 0.0161

## CN(CCO)CC[C@H](CSc1ccccc1)Nc1ccc(S(=O)(=O)NC(=O)c2ccc(N3CCC([C@@H](O)c4ccccc4-c4ccc(Cl)cc4)CC3)cc2)cc1S(=O)(=O)C(F)(F)F [AZD4320] + C[C@@H](Nc1cc(F)cc(F)c1)c1cc(C(=O)N(C)C)cc2c(=O)cc(N3CCOCC3)oc12 [AZD8186] (first compound max 1 µM, 7x7, partner max 3 µM)
[1]
  Bliss excess: 0.0092
[2]
  Bliss excess: 0.012
[3]
  Bliss excess: 0.0703
CHL-1 (Melanoma)
  Bliss excess: 0.0322

## CC1(C)CCC(CN2CCN(c3ccc(C(=O)NS(=O)(=O)c4ccc(NCC5CCOCC5)c([N+](=O)[O-])c4)c(Oc4cnc5[nH]ccc5c4)c3)CC2)=C(c2ccc(Cl)cc2)C1 [Venetoclax] + CCN(CCO)CCCOc1ccc2c(Nc3cc(CC(=O)Nc4cccc(F)c4)[nH]n3)ncnc2c1 [AZD2811] (first compound max 1 µM, 7x7, partner max 1 µM)
[1]
  Bliss excess: 0.0245
[2]
  Bliss excess: -0.0135
[3]
  Bliss excess: -0.0222
CHL-1 (Melanoma)
  Bliss excess: 0.0784

## COc1cccc(OCCCN)c1-c1cc(Nc2cnc(C#N)cn2)n[nH]1 [Prexasertib] + C=CCn1c(=O)c2cnc(Nc3ccc(N4CCN(C)CC4)cc3)nc2n1-c1cccc(C(C)(C)O)n1 [AZD1775] (first compound max 1 µM, partner max 1 µM)
[1]
  Bliss excess: 0.0874
[2]
  Bliss excess: -0.0104
[3]
  Bliss excess: 0.0487
CHL-1 (Melanoma)
  Bliss excess: 0.0485

## COc1cccc(OCCCN)c1-c1cc(Nc2cnc(C#N)cn2)n[nH]1 [Prexasertib] + CN(C)CCCOc1ccc(-c2ccc3ncc4c(c3c2)n(C2CCOCC2)c(=O)n4C)cn1 [AZD0156] (first compound max 1 µM, 7x7, partner max 1 µM)
[1]
  Bliss excess: -0.0233
[2]
  Bliss excess: -0.011
[3]
  Bliss excess: -0.0159
CHL-1 (Melanoma)
  Bliss excess: 0.0059

## COc1cccc(OCCCN)c1-c1cc(Nc2cnc(C#N)cn2)n[nH]1 [Prexasertib] + C[C@@H]1COCCN1C2=NC(=NC(=C2)C3(CC3)[S@](=N)(=O)C)C4=C5C=CNC5=NC=C4 [AZD6738] (first compound max 1 µM, 7x7, partner max 10 µM)
[1]
  Bliss excess: 0.0378
[2]
  Bliss excess: -0.0534
[3]
  Bliss excess: -0.0002
CHL-1 (Melanoma)
  Bliss excess: 0.0139

## CN(CCO)CC[C@H](CSc1ccccc1)Nc1ccc(S(=O)(=O)NC(=O)c2ccc(N3CCC([C@@H](O)c4ccccc4-c4ccc(Cl)cc4)CC3)cc2)cc1S(=O)(=O)C(F)(F)F [AZD4320] + Cn1cnc2c(F)c(Nc3ccc(Br)cc3Cl)c(C(=O)NOCCO)cc21 [Selumetinib] (first compound max 1 µM, 7x7, partner max 3 µM)
[1]
  Bliss excess: 0.0554
[2]
  Bliss excess: 0.0081
[3]
  Bliss excess: 0.0144
CHL-1 (Melanoma)
  Bliss excess: -0.0218

## CN(CCO)CC[C@H](CSc1ccccc1)Nc1ccc(S(=O)(=O)NC(=O)c2ccc(N3CCC([C@@H](O)c4ccccc4-c4ccc(Cl)cc4)CC3)cc2)cc1S(=O)(=O)C(F)(F)F [AZD4320] + C=CCn1c(=O)c2cnc(Nc3ccc(N4CCN(C)CC4)cc3)nc2n1-c1cccc(C(C)(C)O)n1 [AZD1775] (first compound max 1 µM, partner max 1 µM)
[1]
  Bliss excess: -0.0011
[2]
  Bliss excess: -0.0201
[3]
  Bliss excess: -0.0076
CHL-1 (Melanoma)
  Bliss excess: 0.0509

## COc1nnc2ccc(N3CCC(c4ccc(OCCN5CCN(C)C(=O)[C@H]5C)cc4)CC3)nn12 [AZD5153] + CN(CC[C@H](CSC1=CC=CC=C1)NC2=C(C=C(C=C2)S(=O)(=O)NC(=O)C3=CC=C(C=C3)N4CCC(CC4)[C@H](C5=CC=CC=C5C6=CC=C(C=C6)Cl)O)S(=O)(=O)C(F)(F)F)CCO [AZD4320] (first compound max 1 µM, 7x7, partner max 1 µM)
[3]
  Bliss excess: -0.0066

## Cc1c2c(nn1C)CSCc1cc(n(C)n1)CSc1cc(c3ccccc3c1)OCCCc1c(C(=O)O)n(C)c3c-2c(Cl)ccc13 [AZD5991] + CC1(C)CCC(CN2CCN(c3ccc(C(=O)NS(=O)(=O)c4ccc(NCC5CCOCC5)c([N+](=O)[O-])c4)c(Oc4cnc5[nH]ccc5c4)c3)CC2)=C(c2ccc(Cl)cc2)C1 [Venetoclax] (first compound max 1 µM, 7x7, partner max 1 µM)
[1]
  Bliss excess: -0.0296
[2]
  Bliss excess: -0.0422
[3]
  Bliss excess: 0.0047
CHL-1 (Melanoma)
  Bliss excess: 0.227

## CCc1c2c(nc3ccc(O)cc13)-c1cc3c(c(=O)n1C2)COC(=O)[C@]3(O)CC [SN-38] + O=C(c1cc(Cc2n[nH]c(=O)c3ccccc23)ccc1F)N1CCN(C(=O)C2CC2)CC1 [Olaparib] (first compound max 0.3 µM, 7x7, partner max 10 µM)
[1]
  Bliss excess: 0.0423
[2]
  Bliss excess: 0.0419
CHL-1 (Melanoma)
  Bliss excess: 0.0683

## CC(=O)c1c(C)c2cnc(Nc3ccc(N4CCNCC4)cn3)nc2n(C2CCCC2)c1=O [Palbociclib] + CN(CC[C@H](CSC1=CC=CC=C1)NC2=C(C=C(C=C2)S(=O)(=O)NC(=O)C3=CC=C(C=C3)N4CCC(CC4)[C@H](C5=CC=CC=C5C6=CC=C(C=C6)Cl)O)S(=O)(=O)C(F)(F)F)CCO [AZD4320] (first compound max 10 µM, 7x7, partner max 1 µM)
[3]
  Bliss excess: -0.0742
